This assay has as its system bacteria. Briefly: Binding of targeting peptides to microorganisms (Table 3). The conditions noted are these: peptide binding in aqueous buffers that varied depending on peptide solubility; preferably 1x PBS.

The values that follow come from US9597407B2, “Targeted antimicrobial moieties” (C3 Jian, Inc., priority 2009, dated 2017).

Entries after “also recorded” stand apart in the source; their conditions may differ.

Turning to “PF-507 (LALSIANLFKKKA; Peptide with targeting and/or antimicrobial activity)”, the “Target(s) (microorganisms bound by the targeting peptide)” value is recorded as “S. mutans; also recorded: E. coli”. Regarding “PF-508 (VSTFGKVVKVVDEK; Peptide with targeting and/or antimicrobial activity)”, the “Target(s) (microorganisms bound by the targeting peptide)” value was “S. mutans”. In the case of “PF-509 (EAKVQAKGEQIACNNY; Peptide with targeting and/or antimicrobial activity)”, the “Target(s) (microorganisms bound by the targeting peptide)” value is “S. mutans; also recorded: B. subtilis; also recorded: E. coli”.

On to “PF-510 (WYLYKKQSNQNDRGIPK; Peptide with targeting and/or antimicrobial activity)”, for which the “Target(s) (microorganisms bound by the targeting peptide)” value is on record as “S. mutans; also recorded: E. coli”. “PF-568 (TQAVQVKTAQAQQQ; Peptide with targeting and/or antimicrobial activity)”: the “Target(s) (microorganisms bound by the targeting peptide)” value is given as “S. epidermidis”. Same read-out and setting: under “PF-570 (KKFPTEESHIQAVLEFKKLTEHPSG; Peptide with targeting and/or antimicrobial activity)” stands “S. pneumoniae; also recorded: C. jeikeium”. As to “PF-641 (SWKCHHLAIGGSWKCHHLAI; Peptide with targeting and/or antimicrobial activity)”, the “Target(s) (microorganism bound by the targeting peptide)” value was “S. epidermidis and M. luteus and E. coli and C. albicans and MRSA and E. faecalis and C. jeikeium and C. jejuni”. With “PF-648 (ARRYPAAGS; Peptide with targeting and/or antimicrobial activity)”, the “Target(s) (microorganism bound by the targeting peptide)” value is on record as “S. mutans; also recorded: E. coli”.

“PF-650 (IRSDQPGRQSRSSPRWPTGAGRHR; Peptide with targeting and/or antimicrobial activity)”: the “Target(s) (microorganism bound by the targeting peptide)” value is reported as “Mycobacteria spp”.

Turning to “PF-669 (RADRIESYPADGDRVITLWRNPYR; Peptide with targeting and/or antimicrobial activity)”, the “Target(s) (microorganism bound by the targeting peptide)” value is “Mycobacteria spp”. As for “PF-671 (TVSAFRTVH; Peptide with targeting and/or antimicrobial activity)”, the “Target(s) (microorganism bound by the targeting peptide)” value is recorded as “S. mutans; also recorded: E. coli”. Still for that read-out and setting: to “PF-673 (VRRLRM; Peptide with targeting and/or antimicrobial activity)” belongs “S. mutans; also recorded: E. coli”.

Take “PF-674 (DGCDSEPALTYR; Peptide with targeting and/or antimicrobial activity)”: the “Target(s) (microorganism bound by the targeting peptide)” value is listed as “S. mutans; also recorded: E. coli”. On the same count and under the same terms, under “PF-676 (AEYRGL; Peptide with targeting and/or antimicrobial activity)” stands “S. mutans; also recorded: E. coli”. For “PF-678 (RDRRWTRRDMYDWLESARV; Peptide with targeting and/or antimicrobial activity)”, the “Target(s) (microorganism bound by the targeting peptide)” value is “Mycobacteria spp”.

Regarding “PF-679 (CRARFIRR; Peptide with targeting and/or antimicrobial activity)”, the “Target(s) (microorganism bound by the targeting peptide)” value is “S. mutans; also recorded: E. coli”.

On to “PF-689 (SAPSG; Peptide with targeting and/or antimicrobial activity)”, for which the “Target(s) (microorganism bound by the targeting peptide)” value is “S. mutans; also recorded: E. coli”. Regarding “PF-701 (PRGAQSGHG; Peptide with targeting and/or antimicrobial activity)”, the “Target(s) (microorganism bound by the targeting peptide)” value was “S. mutans”.

Take “PF-703 (MTTVDNIVGLVIAVALMAFLFAALLFPEKF; Peptide with targeting and/or antimicrobial activity)”: the “Target(s) (microorganism bound by the targeting peptide)” value is on record as “Mycobacteria spp”. On the same count and under the same terms, to “PF-705 (GEEEGTVAD; Peptide with targeting and/or antimicrobial activity)” belongs “S. mutans; also recorded: E. coli”; to “PF-706 (LGYGAWIGCGLGLNGFHRID; Peptide with targeting and/or antimicrobial activity)”, “L. pneumophila”; to “PF-707 (IDPESIVTTNNKQDNVDEQ; Peptide with targeting and/or antimicrobial activity)”, “S. mutans; also recorded: E. coli”. Still for that read-out and setting: to “PF-709 (NKKHSPMD; Peptide with targeting and/or antimicrobial activity)” belongs “S. mutans”; to “PF-711 (KTAGPTGTIYKTN; Peptide with targeting and/or antimicrobial activity)”, “S. mutans”; to “PF-712 (QIYRHVHKVQAKSANLRLY; Peptide with targeting and/or antimicrobial activity)”, “S. mutans; also recorded: E. coli”.

Turning to “PF-714 (FVVTQRMLRMYKK; Peptide with targeting and/or antimicrobial activity)”, the “Target(s) (microorganism bound by the targeting peptide)” value is reported as “L. pneumophila”.

Take “PF-716 (HGENHHHKSDEKDNDSSEKKD; Peptide with targeting and/or antimicrobial activity)”: the “Target(s) (microorganism bound by the targeting peptide)” value is listed as “S. mutans”. As for “PF-717 (PQSEVTFENIYAPKANGGGLYGI; Peptide with targeting and/or antimicrobial activity)”, the “Target(s) (microorganism bound by the targeting peptide)” value was “E. coli”. The same measure, in the same setting: under “PF-720 (SLDMGK; Peptide with targeting and/or antimicrobial activity)” stands “S. mutans”; under “PF-724 (CYRFLTPKRPTRIS; Peptide with targeting and/or antimicrobial activity)”, “L. pneumophila”. Take “PF-727 (AYARCRHDYPFTLGQMQTH; Peptide with targeting and/or antimicrobial activity)”: the “Target(s) (microorganism bound by the targeting peptide)” value is given as “S. mutans; also recorded: E. coli”. Still for that read-out and setting: to “PF-728 (AIGQEQDRREYYYYSGYPYYY; Peptide with targeting and/or antimicrobial activity)” belongs “S. mutans; also recorded: E. coli”; to “PF-731 (RHKLIRLPLSESVFCFLNNPKI; Peptide with targeting and/or antimicrobial activity)”, “L. pneumophila”. Same read-out and setting: to “PF-732 (DRPSQTTHHTLSSSRITGPS; Peptide with targeting and/or antimicrobial activity)” belongs “E. coli”. “PF-733 (VISRQMGSEAVLELFIIM; Peptide with targeting and/or antimicrobial activity)”: the “Target(s) (microorganism bound by the targeting peptide)” value is listed as “S. mutans; also recorded: E. coli”. The same measure, in the same setting: to “PF-735 (YDPLFPNDKN; Peptide with targeting and/or antimicrobial activity)” belongs “S. mutans; also recorded: E. coli”; to “PF-750 (AESSPAKTTA; Peptide with targeting and/or antimicrobial activity)”, “M. luteus; also recorded: C. jeikeium”. Still for that read-out and setting: to “PF-751 (AESSPAQETT; Peptide with targeting and/or antimicrobial activity)” belongs “S. epidermidis; also recorded: E. coli; also recorded: C. albicans; also recorded: C. jeikeium”; to “PF-765 (YLYWEVEHKPIIAKRDAYYAQLRKQKEIEEGA; Peptide with targeting and/or antimicrobial activity)”, “S. epidermidis and M. luteus and E. coli and MRSA and E. faecalis and C. jeikeium”; to “PF-766 (DAYYAQLRKQKEIEEGA; Peptide with targeting and/or antimicrobial activity)”, “S. epidermidis and M. luteus and C. albicans and MRSA and E. faecalis and C. jeikeium”. Same read-out and setting: under “PF-767 (DGKQGEPVALKPTDN; Peptide with targeting and/or antimicrobial activity)” stands “S. epidermidis and M. luteus and E. coli and MRSA and S. pneumoniae and E. faecalis and C. jeikeium”; under “PF-768 (GFRGGKRGGARG; Peptide with targeting and/or antimicrobial activity)”, “S. epidermidis; also recorded: S. pneumoniae; also recorded: E. faecalis; also recorded: C. jeikeium”. For “PF-772 (TKESSS; Peptide with targeting and/or antimicrobial activity)”, the “Target(s) (microorganism bound by the targeting peptide)” value is “S. epidermidis and C. albicans and MRSA and S. pneumoniae and C. jeikeium”. With “PF-773 (TLKESK; Peptide with targeting and/or antimicrobial activity)”, the “Target(s) (microorganism bound by the targeting peptide)” value is on record as “S. epidermidis; also recorded: C. albicans; also recorded: C. jeikeium”. The same measure, in the same setting: to “PF-777 (PGADGKLAEASAAIARLVRS; Peptide with targeting and/or antimicrobial activity)” belongs “Mycobacteria spp”.

In the case of “PF-778 (MNLILTAHGT; Peptide with targeting and/or antimicrobial activity)”, the “Target(s) (microorganism bound by the targeting peptide)” value is given as “Mycobacteria spp”. Take “PF-779 (IYGDFFNFYLCDISLKVNGLQPGGPVRTVKLFGQPTGRCTPQ; Peptide with targeting and/or antimicrobial activity)”: the “Target(s) (microorganism bound by the targeting peptide)” value was “Mycobacteria spp”.

With “PF-780 (AVYDALVALAAAEHRAELATRDARAKDTYEKIGVHVVVAA; Peptide with targeting and/or antimicrobial activity)”, the “Target(s) (microorganism bound by the targeting peptide)” value is “Mycobacteria spp”. For the substance “PF-781 (PLVVVNHRRAERSRG; Peptide with targeting and/or antimicrobial activity)”, the “Target(s) (microorganism bound by the targeting peptide)” value is on record as “Mycobacteria spp”.
